Results: article PMC2360155, “Novel retinoic acid metabolism blocking agents have potent inhibitory activities on human breast cancer cells and tumour growth” (British Journal of Cancer, 2007)

How the values were obtained:
PARP = assay: Western immunoblotting for cleaved PARP in T47D cells; format: cell-based, human; conditions: 6 days
Procedure: (§1) At the end of the treatment, cells were scrapped and collected by washing with ice-cold PBS in a centrifuge tube. Cells were centrifuged at 2500 r.p.m. for 10 min, the pellet was again washed with ice-cold PBS and centrifuged. The cell pellet was then suspended in chilled cell lysis buffer (0.1 M Tris–HCl, 0.5% Triton X-100, protease inhibitor cocktail) and sonicated on ice for 10–15 s. The homogenate was kept on ice for 30 min and then centrifuged at 13 000 r.p.m. for 30 min. The supernatant was used as cell lysate. The cell lysates were stored at −80°C. Protein concentration of the cell lysates was determined using Bio-Rad protein assay reagents.
(§2) Protein lysates from MCF-7 and T47D cells were subjected to sodium dodecyl sulphate–polyacrylamide gel electrophoresis (SDS–PAGE) and immunoblotted for different proteins. […] Immunoreactive bands were visualised using the enhanced chemiluminescence detection reagents and analysis system (Amersham Bioscences) according to the manufacturer's instructions and quantified by densitometry using ImageQuant software version 5.
Figure 7 (A) Western immunoblotting of whole-cell lysates of treated MCF-7 and T47D cells for the expression of Bad. […] Numbers below the blot show fold increase in expression of the protein as analysed by ImageQuant densitometry analysis. […]

cyclin D1 = assay: Western blotting for cyclin D1 in T47D cells; format: cell-based, human; conditions: 1, 5 and 10 μM, 6 days
Procedure: as §1, §2
Figure 5 Western blotting of whole-cell lysates of treated MCF-7 and T47D cells for the expression of Cyclin D1. […] Numbers below the blot show fold decrease in expression of the protein as analysed by ImageQuant densitometry analysis. […]

AP1 activity = assay: Anti-AP1 assay (AP-1 CAT reporter, CV-1 cells cotransfected with RAR subtypes); format: cell-based; conditions: 10^−6 M; each of the three RAR subtypes cotransfected
Procedure: The ability of each RAMBA to inhibit AP1 activity was determined using anti-AP1 assays as we have described previously ([Soprano et al, 2000]). Briefly, CV-1 cells were cotransfected with 1.5 μg RAR subtype (RARα, RARβ and RARγ) expression vector construct in pSG5, 1.5 μg AP-1 CAT reporter DNA and 0.5 μg pCMV-β-gal DNA. […] Twenty-four hours later, the cells were harvested and CAT and β-gal activities were assayed. The percentage of AP-1 activity was calculated using the ethanol carrier control sample as 100%.

MCF-7 cells = assay: TUNEL apoptosis assay, MCF-7; format: cell-based, human; conditions: 5 μM; 6 days; control about 1.5%
Source text: The cells were rinsed with PBS and then the stained-labelled apoptotic cells were mounted using DAPI (diamidino-2-phenylindole 2HCl)-glycerol and visualised with a fluorescent microscope using two filters (1) for TUNEL stained cells, and (2) for DAPI stained cells, which represents all the cells (nuclei). Fluorescent microscope model was Nikon, Eclipse E400 and the software was SPOT advanced version 3.5.5 by Diagnostic Instruments Inc. (Sterling Heights, MI, USA).
Figure 6 Graphs showing apoptosis induced in (A) MCF-7 and (B) T47D cells as determined by TUNEL. […] TUNEL-stained apoptotic cells were counted against the DAPI stained cells to obtain percentage apoptosis. The experiments were repeated thrice with similar results. Error bars show s.e.m of three different fields of treated cells, statistically significant ^*P<0.01 and ^**P<0.001 vs control.

SMILES | Increase in level of cleaved PARP compared with control (PARP; 1 μM) | Increase in level of cleaved PARP compared with control (PARP; 5 μM) | Expression of cyclin D1 (in words) (cyclin D1) | Reduction of AP1-dependent transcription activity (AP1 activity) | Induction of apoptosis (TUNEL), MCF-7 (MCF-7 cells)
CC1=C(/C=C/C(C)=C/C=C/C(C)=C/C(=O)O)C(C)(C)CCC1n1ccnc1 (centres unmarked) [VN/14-1] | 6.3 fold | 7.5 fold | significantly downregulated | 20–40% | –
CC1=C(/C=C/C(C)=C/C=C/C(C)=C\C(=O)Nc2ccc(O)cc2)C(C)(C)CCC1n1ccnc1 (centres unmarked) [VN/69-1] | – | – | – | – | least effective of the RAMBAs in inducing apoptosis
